Entries after “also recorded” stand apart in the source; their conditions may differ. Like-named read-outs stand apart in the source and are kept apart here.
Experiments:
[1] = tested on: formalin-induced nociception; experiment: Formalin test, intra-hippocampal injection; type: in vivo, rat
Procedure: (§1) The day prior to formalin testing, rats were placed in the boxes for a 15 min habituation period. The day of testing, vehicle or PAF antagonists were administered and the rats were placed in the boxes for 20 min. At this time, animals were removed from the box, and 50 μl of 1% formalin (0.4% formaldehyde) was injected subcutaneously into the plantar surface of the right hind paw with a 27-gauge needle. Immediately after injection, each animal was exposed to the open field box for 60 min and the amount of time they elevated their injected paw was recorded as described for previous Examples.
(§2) Upon completion of testing, animals were overdosed with sodium pentobarbitol and perfused with saline followed by 10% formalin solution. Brains were removed, fixed, and cut into 20-μm coronal sections throughout the cannula tract. Sections were then mounted, stained with cresyl violet, and coverslipped. […] The behavioral data for 4 rats were discarded from the study due to incorrect cannulae placement.
(§3) Data were expressed as means+/−SEM and p values <0.05 were considered statistically significant. Experimental groups were compared using a one-way analysis of variance (ANOVA) with repeated measures (5 min blocks of time) followed by Scheffe's post-hoc test. Independent t-tests were used to assess the effects of the PAF antagonists on the individual 5 min bins of time post-formalin as well.

[2] = tested on: formalin-induced nociception; experiment: Formalin test, intrathecal injection (spinal cord); type: in vivo, rat; details: for nociceptive response: injected intrathecally (into the spinal cord), 10, 1 or 0.1 μg, 20 minutes prior to formalin
Procedure: as §1, §3

[3] = tested on: astrocyte-enriched cortical cell cultures; experiment: Effect of PAF antagonists on mc-PAF-, lyso-PAF- and AA-induced PGE2 release from astrocytes; type: cell-based, rat; details: for mc-PAF-induced PGE2 release: antagonist added 30 min before mc-PAF (1 μM), 30 min, BN 50730 0.1-100 μM, BN 52021 and CV 6209 1-50 μM; for AA-induced PGE2 release / lyso-PAF-induced PGE2 release: antagonist added 30 min prior
Procedure: (§4) All experimental protocols were approved by the Massachusetts Institute of Technology institutional review committee and meet the guidelines of the National Institutes of Health. Dissociated astrocytes were cultured from cortices of postnatal day 1-2 rat pups (as described by K. D. McCarthy, et al., Preparation of separate astroglial and oligodendroglial cell cultures from rat cerebral tissue, J. Cell Biol. 85 (1980) 890-902, with minor modifications R. K. K. Lee, et al., Metabolic glutamate receptors increase amyloid precursor protein processing in astrocytes: inhibition by cyclic AMP, J. Neurochem. 68 (1997) 1830-1835.) In brief, cells from dissociated cortices were plated onto poly-L-lysine coated 35- or 100 mm culture dishes. The initial culture media, minimal essential medium (MEM, Gibco-Life Technologies; Rockville, Md.) containing 15% horse serum (BioWhittaker; Walkersville, Md.), were aspirated 2-5 h after plating to remove unattached cells and debris, and replaced with MEM containing 5% fetal bovine serum (FBS, BioWhittaker; Walkersville, Md.). Half the medium was replaced with MEM/5% FBS twice weekly. Astrocytes were kept at 37° C. in a humidified 5% CO2/95% air incubator for 9-15 days, by which time the cultures were confluent and could be used for experiments.
(§5) Mc-PAF (Biomol; Plymouth Meeting, PA) was dissolved in methanol at a stock concentration of 10 mM. PAF-16, PAF-18, lyso-PAF, AA (Cayman Chemicals), lyso-PC and PC (Sigma) were dissolved in ethanol at stock concentrations of 10 mM. All stock solutions of lipids were stored at −80° C. and were used within 6 weeks of reconstitution. BN 52021 and CV 6209 (Biomol) were dissolved in ethanol. These PAF antagonists were stored at −20° C. in stock concentrations of 100 mM. BN 50730 (Biomeasure; Milford, Mass.) was dissolved in 45% hydroxy-B-cyclodextrin (HBC). All agents were diluted in warned serum-free medium prior to cell stimulation. Equal amounts of vehicle was added to control cells.
(§6) Cells used for all experiments were established in vitro 9-15 days prior to use in experiments and were over 95% confluent. Serum-containing media were changed every 3-4 days. Cells were serum-deprived 24 hours prior to experimental treatments. Where treatment with PAF antagonists is indicated, these compounds were added 30 minutes prior to the addition of other agents.
(§7) PGE2 levels were measured by ELISA according to manufacturer's instructions (Cayman Chemicals, Ann Arbor, Mich.). Since the amount of PGE2 in fresh medium was negligible, (J. Luo, et al., Transforming growth factor B1 regulates the expression of cyclooxygenase in cultured cortical astrocytes and neurons, J. Neurochem. 71 (1998) 526-534), direct assays of the PGE2 concentration in cell-conditioned medium was used as a measurement of PGE2 secretion by cultured cells. Results were derived from at least 3 separate experiments, assayed in duplicate or triplicate (n=6-8). The reliable detection limit of this assay (i.e. sensitivity) averaged 14+/−6 pg of PGE2.

[4] = tested on: formalin-induced nociception; experiment: Formalin test, systemic (i.p.) administration; type: in vivo, rat; details: for nociceptive response (paw elevation time), early phase: 1-10 minutes post-formalin; for nociceptive response (paw elevation time), early phase / nociceptive response (paw elevation time), late phase: 10, 1 or 0.1 mg/kg i.p. 40 minutes prior to formalin; for nociceptive response (paw elevation time), late phase: 10-60 min post-formalin, vs control-treated rats; for dose-response relationship of decrease in nociceptive behavior: three doses 10, 1, 0.1 mg/kg i.p.
Procedure: Sixty male Sprague Dawley rats weighing 300-350 g (Taconic Labs, Canada) were housed in groups of 2-3 per cage, in polycarbonate cages. Animals were maintained under standard environmental conditions (room temperature: 20-20° C.; relative humidity: 55-60%; light/dark schedule: 12/12 hr) with free access to standard laboratory chow and tap water.
BN 50730 (Biomeasure; Milford, Mass.) and BN 52021 (Biomol) were dissolved in 45% hydroxypropyl-B-cyclodextrin in distilled water (HBC). Drugs (at doses of 10, 1, or 0.1 mg/kg) or vehicle were administered intraperitoneally (i.p.) 40 minutes prior to formalin injection. The doses chosen were based on those found to produce central effects after their peripheral administration.
Experiments were carried out in accordance with The National Institutes of Health Guide for the Care and Use of Laboratory Animals. Behavioral testing was carried out in a blind manner. Nociceptive responses were examined in the formalin test described previously, (Dubisson et al., The formalin test: a quantitative study of the analgesic effects of morphine, meperidine, and brain stimulation of rats and cats. Pain 4 (1977) 161-174). In brief, animals were placed in a clear Plexiglas® formalin test box (30 cm×30 cm×30 cm), with a mirror positioned at a 45° angle below the floor allowing for unobstructed observation of the animal's paw. Following a 10-min habituation period, animals were removed from the formalin box, at which time 50 μl of 1% formalin was injected subcutaneously (s.c.) into the plantar surface of the right hind paw with a 27-gauge needle. The amount of time that each rat elevated the injected paw was recorded in five-min intervals during the […] period following formalin injection. Each animal was used once.
The 60-min formalin test produced a biphasic response consisting of an initial, rapidly decaying acute phase (early phase, 1-10 minutes after injection) followed by a slow rising and long-lived tonic phase (late phase, 15-60 minutes after injection). Typically animals elevated their paws following injection (i.e. the early phase) followed by a reduction in this behavior. Approximately 15-20 minutes after injection, the inflammatory late phase began, and animals again elevated their paws to varying degrees for the remainder of the testing period. The amount of time animals elevated their injected paw was used as a behavioral measure of pain.
Data were expressed as means+/−SEM, and p values <0.05 were considered statistically significant. Treatment groups were compared with vehicle-controls using one-way analysis of variance (ANOVA) followed by Fischer's PLSD post-hoc test to compare between groups if overall significance was found by ANOVA.

[5] = tested on: formalin-induced nociception; experiment: Formalin test, injection into the lateral ventricle; type: in vivo, rat; details: for nociceptive response (paw elevation), group effect: lateral ventricle, 10, 1 or 0.1 μg, 20 min prior to formalin, ANOVA
Procedure: Animals were anesthetized (50 mg/kg sodium pentobarbitol), and unilateral guide cannulae (23 gauge) were implanted into the lateral ventricle. The guide cannulae were attached to the skull using jeweler's screws and dental acrylic. After surgery, stylets were inserted and left in place to ensure cannula patency. The formalin test was conducted 7-10 days post-surgery.
as §1, §2, §3

[6] = tested on: primary cortical astrocytes; experiment: Effect of COX inhibitors on mc-PAF-induced PGE2 release from primary astrocytes (Example 3); type: cell-based, rat; details: mc-PAF 0.001 to 1 μM, 30 min
Procedure: Mc-PAF (Cayman Chemical, Ann Arbor, Mich.) was dissolved in ethanol at a stock concentration of 10 mM. Indomethacin, piroxicam, NS-398 (Biomol; Plymouth Meeting, Mass.), and SC-560 (Cayman Chemical) were dissolved in 45% hydroxy-β-cyclodextrin (HBC; Sigma, St. Louis, Mo.). Cells were serum-deprived for 24 hrs prior to experimental treatments to induce quiescence. Where treatment with inhibitors is indicated, these compounds were added 30 min prior to the addition of mc-PAF.
Direct assay of the PGE2 concentration in cell-conditioned medium was used as an index of PGE2 secretion by primary astrocytes. PGE2 levels were measured by ELISA according to manufacturer's instructions (Cayman Chemicals, Ann Arbor, Mich.), as described.
Results were derived from at least 3 separate experiments, assayed in duplicate or triplicate (n=6−8). Data were expressed as means+/−SEMs. Statistical analyses were performed using ANOVAs for comparisons between groups, followed by Fischer's PLSD post hoc comparisons by means contrast. p values <0.05 were considered statistically significant.

[7] = tested on: astrocyte-enriched cortical cell cultures
[8] = tested on: COX-1; experiment: COX-1 protein level after mc-PAF stimulation (immunocytochemical and Western blot analyses); type: cell-based, rat; details: within 30 min of mc-PAF stimulation; data not shown
[9] = tested on: astrocyte-enriched cortical cell cultures; experiment: PGE2 release (ELISA) from astrocyte-enriched cortical cell cultures exposed to PAF analogs, related lipids or AA; type: cell-based, rat
Procedure: as §4, §5, §6, §7

[10] = tested on: COX-2; experiment: COX-2 protein level after mc-PAF stimulation (immunocytochemical and Western blot analyses); type: cell-based, rat; details: within 30 min of mc-PAF stimulation; data not shown

Structure (SMILES)	nociceptive behavior during the tonic or late phase [1]	nociceptive response [2]	mc-PAF-induced PGE2 release [3]	AA-induced PGE2 release [3]	lyso-PAF-induced PGE2 release [3]	nociceptive response (paw elevation time), early phase [4]	nociceptive response (paw elevation time), late phase [4]	dose-response relationship of decrease in nociceptive behavior [4]	nociceptive response (paw elevation), group effect [5]	further results
C[C@@H]1C(=O)O[C@H]2[C@H](O)[C@@]34[C@H]5C[C@@H](C(C)(C)C)[C@]36[C@@H](OC(=O)[C@@H]6O)O[C@@]4(C(=O)O5)[C@@]12O [BN 52021, ginkolide B]	decreases nociceptive behavior	not	no significant effect; also recorded: did not significantly influence; also recorded: do not attenuate	had no effect	had no effect	not significantly affected	significantly shorter times; also recorded: decreased nociceptive behavior	a dose-response relationship was not revealed	significantly affected	PGE2 release, antagonist administered alone ([3]; no mc-PAF): PGE2 release was increased; comparative efficacy when administered to the brain ([5]; administered to the brain (Example 4)): more effective than BN 50730; paw elevation at 50 min post-formalin ([5]; lateral ventricle, 1 μg): decreased paw elevation; levels of paw elevation between 30 and 45 min post-formalin ([5]; lateral ventricle, 10 and 1 μg, independent t-tests): significantly attenuated; nociceptive responses compared with control-treated rats ([5]; lateral ventricle, 10 or 1 μg, Scheffe's post-hoc): significantly diminished
CCCCCCCCCCCCCCCCOC[C@H](COP(=O)([O-])OCC[N+](C)(C)C)OC(=O)NC [mc-PAF, methylcarbamyl-PAF]										release of PGE2 into the conditioned media [6]: concentration-dependent increases; toxicity to cells ([7]; 1 μM mc-PAF): does not appear to have toxic effects; toxicity to cells ([7]; 10 μM mc-PAF, 24 hours): cytologic evidence of toxicity; COX-1 protein levels [8]: did not increase; time at which PGE2 levels returned to baseline ([9]; 1 μM mc-PAF): ≤ 12 h; time of maximum mobilization of PGE2 ([9]; 1 μM mc-PAF): 30 min; time of second, smaller peak of PGE2 release ([9]; 1 μM mc-PAF): 8 h; time to first observed increase in PGE2 release ([9]; 1 μM mc-PAF): ≤ 5 min; PGE2 release over time ([9]; 1 μM mc-PAF, 37° C., various times): time-dependent increase; PGE2 release into the conditioned media ([9]; 30 min, 37° C., various concentrations): concentration-dependent increases; COX-2 protein levels [10]: did not increase
COc1ccc(NC(=S)N2CCc3c(sc4c3C(c3ccccc3Cl)=NCc3nnc(C)n3-4)C2)cc1 [BN 50730]	not	decreased the nociceptive response	attenuates; also recorded: prevented; also recorded: completely abolished	significantly attenuated; also recorded: only attenuated; also recorded: attenuates	significantly attenuated; also recorded: completely abolished; also recorded: attenuates	not significantly affected	significantly shorter paw elevation times; also recorded: decreased nociceptive behavior	a dose-response relationship was not revealed	not significantly affected	comparative efficacy when administered to the spinal cord ([2]; administered to the spinal cord (Example 4)): more effective than BN 52021; basal release of PGE2 ([3]; higher concentrations of BN 50730): reduce the basal release of PGE2

From patent US20050032713A1, “Platelet-activating factor antagonists as analgesic, anti-inflammatory, uterine contraction inhibiting, and anti-tumor agents” (priority 2002, published 2005)
